Assays:
MECP2 mRNA [1] = assay: qPCR of MECP2 mRNA in mouse hepatocytes; details: 10 uM, qPCR relative to DMSO control (FIG. 8)
Excerpt: (§1) Samples were amplified using Taqman probes from ThermoFisher.

MECP2 mRNA [2] = assay: MECP2 mRNA in primary human hepatocytes (donor 1, donor 2); assay type: cell-based; details: two donors, indicated dosages vs DMSO (FIGS. 10A and 10B)
Protocol: (§2) Human hepatocytes were obtained from two donors from Massachusetts General Hospital, namely MGH54 and MGH63, and one donor from Lonza, namely HUM4111B. Cryopreserved hepatocytes were cultured in plating media for 16 hours, transferred to maintenance media for 4 hours. Cultured on serum-free media for 2 hours, then a compound was added. The hepatocytes were maintained on the serum-free media for 16 hours prior to gene expression analysis. Primary human hepatocytes were stored in the vapor phase of a liquid nitrogen freezer (about −130° C.).
(§3) Human hepatocytes cultured as described above were plated in 24-well format, adding 375,000 cells per well in a volume of 500 ul plating medium. Four hours before treatment, cells were washed with PBS and the medium was changed to either: fresh maintenance medium (complete) or modified maintenance medium.
(§4) Compound stocks were prepared at 1000× final concentration and added in a 2-step dilution to the medium to reduce risk of a compound precipitating out of solution when added to the cells, and to ensure reasonable pipetting volumes. One at a time, each compound was first diluted 10-fold in warm (about 37° C.) modified maintenance medium (initial dilution=ID), mixed by vortexing, and the ID was diluted 100-fold into the cell culture (e.g. 5.1 ul into 1 well of a 24-well plate containing 0.5 mL medium). The plate was mixed by carefully swirling and after all wells were treated and returned to the incubator overnight. If desired, separate plates/wells were treated with vehicle-only controls and/or positive controls. If using multi-well plates, controls were included on each plate. After about 18 hours, cells were harvested for further analysis, e.g., ChIP-seq, RNA-seq, ATAC-seq, etc.
as §1

ANGPTL3 = assay: RNA-seq of ANGPTL3 expression in compound-treated primary human hepatocytes; assay type: cell-based; details: additional compounds (Table 13), linear fold change
How it was run: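 Cryopreserved primary human hepatocytes from three donors, plated at 375,000 cells/well, switched to complete or modified maintenance medium, then dosed with compound (stocks at 1000× final) for about 18 h. Poly(A) mRNA was sequenced directionally, mapped to GRCh38 with STAR, and gene-level abundance (counts, FPKM) estimated with RSEM against GENCODE 24.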

SERPINC1 mRNA [3] = assay: Quantitative PCR of SERPINC1 mRNA in primary human hepatocytes (Lonza Hu4282) treated with compounds; assay type: cell-based; details: quantitative PCR; for SERPINC1 mRNA, Lonza Hu4282, 1 uM / SERPINC1 mRNA, Lonza Hu4282, 10 uM: primary human hepatocytes Lonza Hu4282; for SERPINC1 mRNA, Lonza Hu4282, 1 uM / SERPINC1 mRNA, H8290, 1 uM: compound 1 uM; for SERPINC1 mRNA, Lonza Hu4282, 10 uM / SERPINC1 mRNA, H8290, 10 uM: compound 10 uM; for SERPINC1 mRNA, H8290, 1 uM / SERPINC1 mRNA, H8290, 10 uM: hepatocytes H8290
SERPINC1 mRNA [4] = assay: Quantitative PCR of SERPINC1 mRNA in mouse hepatocytes treated with compounds; assay type: cell-based; details: for SERPINC1 mRNA, Mouse Heps, 1 uM: compound 1 uM; for SERPINC1 mRNA, Mouse Heps, 10 uM: compound 10 uM
Protocol: as §1
In some examples, RQ Min and RQ Max values are also reported. RQ Min and RQ Max are the minimum and maximum relative levels of gene expression in the test samples, respectively. They were calculated using the confidence level set in the analysis settings and the confidence level was set to one standard deviation (SD). These values were calculated using standard deviation as follows: […].
Compounds were tested in hepatocytes for upregulation of SERPINC1 mRNA for identification of potential treatments of SERPINC1/AT III deficiency.

SERPINC1 mRNA [5] = assay: RNA seq of SERPINC1 in MGH54 cells treated with select compounds; assay type: cell-based, human; details: compound 10 uM
SERPINC1 = assay: RNA-seq of SERPINC1 expression in compound-treated primary human hepatocytes; assay type: cell-based; details: significance FPKM ≥1, log 2(fold change) ≥0.5, q-value ≤0.05
Protocol: Human hepatocytes were obtained from two donors from Massachusetts General Hospital, namely MGH54 and MGH63, and one donor from Lonza, namely HUM4111B. Cryopreserved hepatocytes were cultured in plating media for 16 hours, transferred to maintenance media for 4 hours. Cultured on serum-free media for 2 hours, then a compound was added. The hepatocytes were maintained on the serum-free media for 16 hours prior to gene expression analysis. Primary human hepatocytes were stored in the vapor phase of a liquid nitrogen freezer (about -130° C.). Human hepatocytes cultured as described above were plated in 24-well format, adding 375,000 cells per well in a volume of 500 ul plating medium. Four hours before treatment, cells were washed with PBS and the medium was changed to either: fresh maintenance medium (complete) or modified maintenance medium. Compound stocks were prepared at 1000× final concentration and added in a 2-step dilution to the medium to reduce risk of a compound precipitating out of solution when added to the cells, and to ensure reasonable pipetting volumes. […] The plate was mixed by carefully swirling and after all wells were treated and returned to the incubator overnight. If desired, separate plates/wells were treated with vehicle-only controls and/or positive controls. If using multi-well plates, controls were included on each plate. After about 18 hours, cells were harvested for further analysis, e.g., ChIP-seq, RNA-seq, ATAC-seq, etc. This protocol is a modified version of the following protocols: MagMAX mirVana Total RNA Isolation Kit User Guide (Applied Biosystems #MAN0011131 Rev B.0), NEBNext Poly(A) mRNA Magnetic Isolation Module ([…]), and NEBNext Ultra Directional RNA Library Prep Kit for Illumina ([…]) (New England Biosystems #E74901). […] Two hundred μl of Lysis Binding Mix was used per well of the multiwell plate containing adherent cells (usually a 24-well plate). For mRNA isolation and library prep, the NEBNext Poly(A) mRNA Magnetic Isolation Module and Directional Prep kit was used. RNA isolated from cells above was quantified, and prepared in […] of each sample in 50 μl of nuclease-free water. This protocol may be run in microfuge tubes or in a 96-well plate. […] Genomic alignments were converted to transcriptome alignments based on reference transcript annotations from the Human GENCODE Gene Set release 24 (Harrow et al., Genome Res. […] Using unique and multimapped transcriptomic alignments, gene-level abundance estimates were computed using RSEM version 1.3.0 (Li and Dewey, BMC Bioinformatics (2011) 12:323) in a strand-aware manner, and including confidence interval sampling calculations, to arrive at posterior mean estimates (PME) of abundances (counts and normalized FPKM-fragments per kilobase of exon per million mapped fragments) from the underlying Bayesian model. Standard QC were applied (read integrity, mapping statistics, library complexity, fragment bias) to remove unsatisfactory samples. Differential gene expression was computed using the negative binomial model implemented by DESeq2 version 1.16.1 (Love et al., Genome Biol. (2014) 15(12):550). […] RNA-seq signals were also normalized by read depth and visualized using the UCSC browser. To identify small molecules that modulate target gene expression, primary human hepatocytes were prepared as a monoculture, and at least one small molecule compound was applied to the cells. RNA-seq was performed to determine the effects of the compounds on the expression of the target genes in hepatocytes. Fold change was calculated by dividing the level of expression in the cell system that had been perturbed by the level of expression in an unperturbed system.

UGT1A1 = assay: RNA-seq of UGT1A1 expression in compound-treated primary human hepatocytes; assay type: cell-based
How it was run: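 Cryopreserved primary human hepatocytes from three donors were plated in 24-well format, then treated with compound diluted from 1000× stocks in serum-free maintenance medium for about 16–18 h. Poly(A) RNA-seq log2 fold change was computed against vehicle/pan-experiment controls. Significance required FPKM ≥1, log2FC ≥0.5 and q ≤0.05.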

APOL1 mRNA = APOL1 mRNA in primary human hepatocytes treated with Momelotinib or metabolite M21; assay type: cell-based; details: 3.3 uM vs DMSO (FIG. 11, FIG. 12)
FN1 = assay: RNA-seq of FN1 expression in compound-treated primary human hepatocytes; assay type: cell-based; details: perturbed vs unperturbed, significance FPKM ≥1, log 2(fold change) ≥0.5, q-value ≤0.05
Protocol: as §2, §3, §4
This protocol is a modified version of the following protocols: MagMAX mirVana Total RNA Isolation Kit User Guide (Applied Biosystems #MAN0011131 Rev B.0), NEBNext Poly(A) mRNA Magnetic Isolation Module (E7490), and NEBNext Ultra Directional RNA Library Prep Kit for Illumina (E7420) (New England Biosystems #E74901).
The MagMAX mirVana kit instructions (the section titled “Isolate RNA from cells” on pages 14-17) were used for isolation of total RNA from cells in culture. Two hundred μl of Lysis Binding Mix was used per well of the multiwell plate containing adherent cells (usually a 24-well plate).
For mRNA isolation and library prep, the NEBNext Poly(A) mRNA Magnetic Isolation Module and Directional Prep kit was used. RNA isolated from cells above was quantified, and prepared in […] of each sample in 50 μl of nuclease-free water. This protocol may be run in microfuge tubes or in a 96-well plate.
All pass filter reads from each sample were mapped against the human genome (assembly GRCh38/GCA_000001405.15 “no alt” analysis set merged with hs38d1/GCA_000786075.2) using two pass mapping via STAR version 2.5.3a (alignment parameters alignIntronMin=20; alignIntronMax=1000000; outFilterMismatchNmax=999; outFilterMismatchNoverLmax=0.05; outFilterType=BySJout; outFilterMultimapNmax=20; alignSJoverhangMin=8; alignSJDBoverhangMin=1; alignMatesGapMax=1000000) (Dobin et al., Bioinformatics (2012) 29(1):15-21). Genomic alignments were converted to transcriptome alignments based on reference transcript annotations from the Human GENCODE Gene Set release 24 (Harrow et al., Genome Res. (2012) 22(9): 1760-1774). Using unique and multimapped transcriptomic alignments, gene-level abundance estimates were computed using RSEM version 1.3.0 (Li and Dewey, BMC Bioinformatics (2011) 12:323) in a strand-aware manner, and including confidence interval sampling calculations, to arrive at posterior mean estimates (PME) of abundances (counts and normalized FPKM—fragments per kilobase of exon per million mapped fragments) from the underlying Bayesian model. Standard QC were applied (read integrity, mapping statistics, library complexity, fragment bias) to remove unsatisfactory samples.

HMBS = assay: RNA-seq of HMBS expression in compound-treated primary human hepatocytes; assay type: cell-based
Protocol: as §2, §3
Compound stocks were prepared at 1000× final concentration and added in a 2-step dilution to the medium to reduce risk of a compound precipitating out of solution when added to the cells, and to ensure reasonable pipetting volumes. […]
For mRNA isolation and library prep, the NEBNext Poly(A) mRNA Magnetic Isolation Module and Directional Prep kit was used. RNA isolated from cells above was quantified, and prepared in […] of each sample in 50 μl of nuclease-free water. […]

| Structure (SMILES) | SERPINC1 mRNA, Lonza Hu4282, 1 uM (SERPINC1 mRNA [3]) | SERPINC1 mRNA, Lonza Hu4282, 10 uM (SERPINC1 mRNA [3]) | SERPINC1 mRNA, Mouse Heps, 1 uM (SERPINC1 mRNA [4]) | SERPINC1 mRNA, Mouse Heps, 10 uM (SERPINC1 mRNA [4]) | SERPINC1, MGH54 (RNA seq), 10 uM (SERPINC1 mRNA [5]) | SERPINC1 mRNA, H8290, 1 uM (SERPINC1 mRNA [3]) | SERPINC1 mRNA, H8290, 10 uM (SERPINC1 mRNA [3]) | also measured |
| --- | --- | --- | --- | --- | --- | --- | --- | --- |
| C=CCNC1=C2C[C@@H](C)C[C@H](OC)[C@H](O)[C@@H](C)/C=C(\C)[C@H](OC(N)=O)[C@@H](OC)/C=C\C=C(/C)C(=O)NC(=CC1=O)C2=O [17-AAG (Tanespimycin), Tanespimycin] | – | – | – | – | – | – | – | MECP2 mRNA change in mouse hepatocytes (MECP2 mRNA [1]): increased; MECP2 mRNA change in primary human hepatocytes (MECP2 mRNA [2]): dose-dependent increase |
| COc1ccc(-c2ccc3c(N4CCOC[C@@H]4C)nc(N4CCOC[C@@H]4C)nc3n2)cc1CO [AZD8055] | 1.3 | 1.61 | 3.2 | 3.4 | 0 | – | – | ANGPTL3-LINEAR FOLD CHANGE (ANGPTL3): 0.4965 |
| COc1cc2c(Oc3ccc(NC(=O)C4(C(=O)Nc5ccc(F)cc5)CC4)cc3F)ccnc2cc1OCCCN1CCOCC1 [Foretinib] | 1.04 | 1.36 | 1.05 | 0.93 | 0 | 1 | 2.2 | – |
| O=C1CCc2c(Oc3ccc4c(c3)[C@@H]3[C@H](O4)[C@H]3c3nc4cc(C(F)(F)F)ccc4[nH]3)ccnc2N1 [Lifirafenib (BGB-283)/BeiGene] | 1.05 | 1.21 | 0.81 | 1.1 | 1.43 | 1.1 | 2.1 | – |
| N#CCNC(=O)c1ccc(-c2ccnc(Nc3ccc(N4CCOCC4)cc3)n2)cc1 [Momelotinib] | – | – | – | – | – | – | – | SERPINC1 Fold Change (Log2) (SERPINC1): 0.93 Log2; UGT1A1 Fold Change (Log2) (UGT1A1): 1.05 Log2; APOL mRNA change in primary human hepatocytes (APOL1 mRNA): Downregulation |
| CC(=O)NCC(=O)N1[C@@H]2CC[C@H]1c1ccc(Nc3ncc(C(F)(F)F)c(NC4CCC4)n3)cc12 [PF-3814735] | 0.99 | 2.6 | 1.2 | 1.86 | 2.43 | – | – | ANGPTL3-LINEAR FOLD CHANGE (ANGPTL3): 0.4383 |
| CN1CCN(c2nc(C3=C(c4c[nH]c5ccccc45)C(=O)NC3=O)c3ccccc3n2)CC1 [Sotrastaurin] | – | – | – | – | – | – | – | FN1 Fold Change (Log2) (FN1): −0.81 Log2; HMBS Fold Change (Log2) (HMBS): 0.78 Log2; UGT1A1 Fold Change (Log2) (UGT1A1): 0.88 Log2 |
| CO[C@H]1C[C@@H]2CC[C@@H](C)[C@@](O)(O2)C(=O)C(=O)N2CCCC[C@H]2C(=O)O[C@H]([C@H](C)C[C@@H]2CC[C@@H](OC(=O)C(C)(CO)CO)[C@H](OC)C2)CC(=O)[C@H](C)/C=C(\C)[C@@H](O)[C@@H](OC)C(=O)[C@H](C)C[C@H](C)/C=C/C=C/C=C/1C [Temsirolimus] | – | – | – | – | 0 | 1.2 | 1.6 | – |
| CCn1c(=O)c(-c2cc[nH]n2)cc2c(C)nc(N)nc21 [Voxtalisib] | 1.1 | 1.24 | 1.23 | 2.4 | 0 | 1.2 | 1.5 | – |
